In patent US20170190744A1 (Vicuron Pharmaceuticals, Inc., priority 2015, published 2017):
Values after ≈ are worked out from the molar mass of the structure shown. Values joined by “and” are separate entries in the source; they are usually repeats but may differ in a detail not shown here. Equal values may be shown once. Read-outs that look alike come from different tables or passages of the source.

Columns and labels:
[1] = tested on: G 16440 E coli iperperm; experiment: MIC (microbiological activity); format: cell-based; conditions: repeat determinations
[2] = tested on: human hepatic microsomes; format: in vitro ADME
[3] = tested on: P450; experiment: P450 induction after administration to rats; format: in vivo
[4] = tested on: skin and soft tissue infections (SSTI); experiment: Phase II trial in deep skin and soft tissue infections: clinical response; format: in vivo, human; conditions: for clinical success rate at FU: clinically-evaluable population; for clinical success rate, deep or complicated SSTI at baseline: exploratory subanalysis
Protocol: This randomized, controlled study evaluated the safety and efficacy of two dose regimens of dalbavancin.
There were 62 patients randomized into the study; all received at least one dose of study medication. Four study populations were evaluated for safety and efficacy and were defined as follows: The intent-to-treat (ITT) population included all patients who received at least one dose of study drug (all randomized study subjects).
(§1) The effectiveness of the three treatment regimens was determined by assessing the patients' clinical response and the documented or presumed microbiological responses. The primary efficacy endpoint was clinical response at the follow-up visit for the clinically evaluable population. Clinical response, for both EOT and FU visits, was categorized as success (cure or improvement) or failure (including indeterminate results). Patients classified as successes must not have received additional systemic antibacterial treatment for their infection. Failure was defined as persistence of one or more local or systemic signs and symptoms of SSTI such that treatment with new or additional systemic antibacterial agents was required for the SSTI.

[5] = tested on: S. aureus; experiment: Phase II SSTI trial: microbiologic response, S. aureus; format: in vivo, human
Protocol: (§2) Microbiological outcome, a secondary efficacy variable, was assessed in the subpopulation of patients who had microbiologically documented SSTI (i.e., at least one identified baseline pathogen). A microbiologic response was assessed for each Gram-positive pathogen identified at baseline (i.e., eradication, presumed eradication, persistence, presumed persistence). For patients for whom follow-up cultures were not performed, the microbiologic responses for baseline pathogens were presumed on the basis of the clinical response. Microbiologic response by patient at the EOT and FU visits was graded as success (i.e., all Gram-positive organisms eradicated or presumed eradicated) or failure (i.e., at least one Gram-positive organism persisted or presumed to have persisted, multiple pathogens with partial eradication). At both the EOT and FU visits, colonization and superinfection were assessed. At the FU visit, a patient's bacteriological response could also include recurrence.

[6] = tested on: methicillin-resistant S. aureus (MRSA); experiment: Phase II SSTI trial: response in patients with MRSA (MITT); format: in vivo, human; conditions: MITT population
Protocol: as §1, §2

[7] = tested on: S. aureus; experiment: MIC in broth, serum, serum ultrafiltrate and albumin (protein binding); format: cell-based; conditions: Staphylococcus aureus
Text: This degree of binding was considered in subsequent pharmacodynamic analyses. The degree of binding in human serum would be estimated to be 96%.

[8] = tested on: S. aureus; experiment: Murine thigh-infection model; format: in vivo, mice; conditions: for 1 Log Kill mg/kg/72 h / 2 Log Kill mg/kg/72 h: q 72 h regimen; for 1 log kill dose: SA29213, total dose over 6 days
Protocol: Each point represents the mean of 4 thighs. Five dose levels, ranging 16-fold were used.
Five different doses (two-fold increases) were used. Study against S. aureus utilized total dose (mg/kg/6 d) levels ranging from 30 to 480 mg/kg/6 d. […] Each point represents the mean of 4 thighs.
Each point represents the mean of four thighs.

[9] = in vivo
Protocol: Safety was evaluated by the collection and analysis of data on adverse events (AEs), clinical laboratory tests, physical examinations, vital signs, and ECGs.

CN[C@H]1C(=O)N[C@@H]2Cc3ccc(cc3)Oc3cc4cc(c3O[C@@H]3O[C@H](C(=O)O)[C@@H](O)[C@H](O)[C@H]3NC(=O)CCCCCCCCC(C)C)Oc3ccc(cc3Cl)[C@@H](O)[C@@H]3NC(=O)[C@H](NC(=O)[C@@H]4NC(=O)[C@@H](NC2=O)c2cc(cc(O)c2Cl)Oc2cc1ccc2O)c1ccc(O)c(c1)-c1c(O[C@H]2O[C@H](CO)[C@@H](O)[C@H](O)[C@@H]2O)cc(O)cc1[C@@H](C(=O)NCCCN(C)C)NC3=O [Dalbavancin]
MIC [1]: 16 µg/mL (≈ 8.81 µM)
effect on metabolism of marker substrates [2]: did not affect the metabolism of marker substrates
P450 induction [3]: did not induce any P450 activity
clinical success rate at FU ([4]; single-dose dalbavancin (1100 mg IV day 1)): 61.5%
clinical success rate at FU ([4]; two-dose dalbavancin (1 g IV day 1, 500 mg IV day 8)): 94.1% and 94%
clinical success rate, deep or complicated SSTI at baseline ([4]; single-dose dalbavancin): 58.3%
clinical success rate, deep or complicated SSTI at baseline ([4]; two-dose dalbavancin): 93.8%
S. aureus eradication rate at FU ([5]; single-dose dalbavancin): 50%
S. aureus eradication rate at FU ([5]; two-dose dalbavancin): 90%
clinical success rate at FU in patients with MRSA ([6]; single-dose dalbavancin): 50%
rate of eradication for MRSA ([6]; single-dose dalbavancin): 50%
clinical success rate at FU in patients with MRSA ([6]; two-dose dalbavancin): 80%
rate of eradication for MRSA ([6]; two-dose dalbavancin): 80%
MIC ([7]; MRSA, read-out: MIC 95% Human Albumin, S. aureus strain MRSA): 8 µg/mL (≈ 4.4 µM)
MIC ([7]; MRSA, read-out: MIC 95% Human Serum, S. aureus strain MRSA): 8 µg/mL (≈ 4.4 µM)
MIC ([7]; MRSA, read-out: MIC 95% Mouse Serum Ultrafiltrate, S. aureus strain MRSA): 0.5 µg/mL (≈ 0.275 µM)
MIC ([7]; MRSA, read-out: MIC 95% Mouse Serum, S. aureus strain MRSA): 32 µg/mL (≈ 17.6 µM)
MIC ([7]; human serum and albumin): 8 µg/mL (≈ 4.4 µM)
MIC ([7]; mouse serum ultrafiltrate): 0.5 µg/mL (≈ 0.275 µM)
MIC ([7]; read-out: MIC 95% Human Albumin, S. aureus strain 25923): 8 µg/mL (≈ 4.4 µM)
MIC ([7]; read-out: MIC 95% Human Serum, S. aureus strain 25923): 8 µg/mL (≈ 4.4 µM)
MIC ([7]; read-out: MIC 95% Mouse Serum Ultrafiltrate, S. aureus strain 25923): 0.5 µg/mL (≈ 0.275 µM)
MIC ([7]; read-out: MIC 95% Mouse Serum, S. aureus strain 25923): 32 µg/mL (≈ 17.6 µM)
MIC ([7]; read-out: MIC (arithmetic), 95% mouse serum): 32 µg/mL (≈ 17.6 µM)
1 Log Kill mg/kg/72 h ([8]; MRSA, 6 days of therapy): 62 mg/kg/72 h
2 Log Kill mg/kg/72 h ([8]; MRSA, 6 days of therapy): 85 mg/kg/72 h
1 Log Kill mg/kg/72 h ([8]; Mean ± SD of S. aureus strains): 94 ± 46 mg/kg/72 h
2 Log Kill mg/kg/72 h ([8]; Mean ± SD of S. aureus strains): 120 ± 54 mg/kg/72 h
1 log kill dose ([8]; q 36 h): 36 mg/kg
1 log kill dose ([8]; q 72 h): 31 mg/kg
1 Log Kill mg/kg/72 h ([8]; SA33591, 6 days of therapy): 93 mg/kg/72 h
1 Log Kill mg/kg/72 h ([8]; SA307109, 6 days of therapy): 34 mg/kg/72 h
2 Log Kill mg/kg/72 h ([8]; SA307109, 6 days of therapy): 37 mg/kg/72 h
1 Log Kill mg/kg/72 h ([8]; SA Smith, 6 days of therapy): 95 mg/kg/72 h
drop in cfu over the 6 day study ([8]; all strains): > 4 log10
free drug AUC/MIC over the 6 days of therapy required for efficacy ([8]; net static effect, 1 or 2 log kill): ~1000
average difference of effect on QTc values versus vancomycin group ([9]; human): 7 ms
impact on heart rate, atrioventricular conduction or intra-ventricular conduction [9]: did not exhibit any impact
